Laboratory results as given in patent publication US7402576B2, “Phosphinic acid analogs of glutamate” (Givaudan SA, priority 2002, dated 2008).

What was measured:
[1] = biological target: T1, enzyme of Corynebacterium striatum Ax 20 (SEQ ID No. 1) (Corynebacterium striatum, UniProt Q8GGD4); assay: Enzyme inhibition, cellular extract, Nα-lauroyl-L-glutamine cleavage, fluorescamine readout; assay type: biochemical, Corynebacterium striatum Ax 20 (DSM 14267); conditions: substrate Nα-lauroyl-L-glutamine 50 μM, 10 min preincubation at 37° C., 15 min incubation, pH 7
T1 construct: endogenous in cells; host or cells: Corynebacterium striatum Ax 20 (DSM 14267), wild-type cell extract
T1 sequence (Q8GGD4 2-400): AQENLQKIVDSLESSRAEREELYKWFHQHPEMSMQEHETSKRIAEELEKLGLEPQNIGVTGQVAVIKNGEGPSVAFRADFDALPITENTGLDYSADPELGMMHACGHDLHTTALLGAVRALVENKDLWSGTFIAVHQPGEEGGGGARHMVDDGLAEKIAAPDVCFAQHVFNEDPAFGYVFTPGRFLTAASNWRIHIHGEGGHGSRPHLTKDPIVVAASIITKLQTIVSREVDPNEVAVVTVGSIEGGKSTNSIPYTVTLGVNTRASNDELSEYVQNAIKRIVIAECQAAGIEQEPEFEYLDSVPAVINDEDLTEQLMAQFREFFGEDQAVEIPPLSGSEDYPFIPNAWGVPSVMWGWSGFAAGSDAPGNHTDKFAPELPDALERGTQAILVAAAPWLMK
Protocol: Cellular Extracts of Corynebacterium striatum Ax 20 (DSM 14267) are prepared by mechanical disruption and subsequent centrifugation.
The extract (50 μl ml corresponding to 0.2 ml initial cell culture) is added to 50 μl of Buffer A (Phosphate Buffer, pH 7). Various concentrations of the compounds of the present invention are added in a volume of 40 μl, and after 10 min preincubation at 37° C., the reaction is and amended with 10 μl of substrate (Nα-lauroyl-L-glutamine, final concentration 50 μM). The samples are incubated for 15 min and then the reaction is stopped by adding 75 μl of Fluorescamine (2.5 mM dissolved in Acetonitrile). The fluorescence resulting from derivatization of the released glutamine with fluorescamine is determined at an excitation wavelength of 381 nm and an emission wavelength of 470 nm.
By comparing the samples containing compounds of the present invention with control samples with enzyme and substrate only, the inhibition (%) is calculated. Alternatively, the same assay is made with a recombinantly formed enzyme produced with a strain containing an expression vector comprising a nucleic acid sequence encoding for the enzyme.

[2] = test system: Corynebacterium Ax20; assay: Inhibition of the enzymatic activity in living cells, release of lauric acid by GC; assay type: cell-based, Corynebacterium striatum Ax 20; conditions: 0.2 μM compound, stationary phase living cells, substrate Nα-lauroyl-L-glutamine 1 mM, 1 h
Protocol: The uptake of the compounds in bacterial cells and the inhibition of the enzyme contained therein may be measured using an assay based on stationary-phase living cells. Thus, cells may be incubated along with inhibitory compound or compounds, and the substrate (i.e. the material found in sweat, which when cleaved by the enzyme forms the malodorous acids), and the release of acids may be measured at various inhibitor concentrations. By comparing IC50 values obtained with the living cells with the IC50 values obtained with the isolated enzyme, the ease of penetration of the compounds into the bacterial cells can be assessed.
In order to evaluate enzyme activity in intact cells, stationary phase living cells of Ax20 are harvested and resuspended in Buffer A to an optical density at 600 nm of 0.25. Inhibitory compounds are added at various concentrations, and after a preincubation of 15 min, the substrate (Nα-lauroyl-L-glutamine, 1 mM final concentration) is added. The samples are incubated for 1 h and then extracted with MTBE and HCl and analysed for released lauric acid using capillary GC. By comparing the samples containing compounds of the present invention with control samples with bacteria and substrate only, the inhibition (%) is calculated. By comparing the inhibitory capacity of the compounds on the isolated enzyme with the values obtained using intact cells, the relative uptake of the compounds by the cells can be assessed. From Table 2 it appears, that compounds of the present invention can cross the bacterial cell wall and cytoplasmatic membrane, and thus can have inhibitory activity in living cells.

Compound | IC50 [1] [nM] | % inhibition of release of fatty acids by Corynebacterium Ax20 at a concentration of 0.2 μM [2] [%]
4-Carbamoyl-2-(hydroxy-naphthalen-2-ylmethyl-phosphinoylmethyl)-butyric acid [Compound 5g] | 138 | –
4-Carbamoyl-2-[hydroxy-(3-phenyl-propyl)-phosphinoylmethyl]-butyric acid [Compound 5t] | 125 | –
4-Carbamoyl-2-[hydroxy-(4-isopropyl-cyclohex-1-enylmethyl)-phosphinoylmethyl]-butyric acid [Compound 5z] | 32 | –
4-Carbamoyl-2-[hydroxy-(4-phenyl-butyl)-phosphinoylmethyl]-butyric acid [Compound 5x] | 40 | –
CCCCCCCCCCP(=O)(O)CC(CCC(N)=O)C(=O)O (stereo not drawn) [Compound 5a, 4-Carbamoyl-2-(decyl-hydroxy-phosphinoylmethyl)-butyric acid] | 30.3 | 60.9
CC(CCc1ccccc1)CCP(=O)(O)CC(CCC(N)=O)C(=O)O (stereo not drawn) [Compound 5c, 4-Carbamoyl-2-[hydroxy-(3-methyl-5-phenyl-pentyl)-phosphinoylmethyl]-butyric acid] | 11.5 | 70.5
CC(C)CCCC(C)CCP(=O)(O)CC(CCC(N)=O)C(=O)O (stereo not drawn) [Compound 5n, 4-Carbamoyl-2-[(3,7-dimethyl-octyl)-hydroxy-phosphinoylmethyl]-butyric acid] | 9 | 69.5
CCCCCCCCP(=O)(O)CC(CCC(N)=O)C(=O)O (stereo not drawn) [Compound 5y, 4-Carbamoyl-2-(hydroxy-octyl-phosphinoylmethyl)-butyric acid] | 17.9 | 64.9
